A short description of data set [1]: Human HepG2 cell viability dose-response assay. It counts as toxicity, cell-based.
Data set [2] can be described thus: Human HepG2 cell viability assay in 384 well format. It counts as toxicity, cell-based. Also noted: dose 125 nL, time 70.5 hour; cytotoxicity at 70.5 h: concentration not given beside the values. The following applies: HepG2 cells, read-out: Inhibition.

Values joined by “and” are separate entries in the source; they are usually repeats but may differ in a detail not shown here. Identical values can stand only once.

For `COc1ccc(C2CCCN2c2nnc(C)s2)c(OC)c1` (centres undefined), in data set [1], the BOTTOM is 0, the HILLSLOPE is on record as 0, the TOP is recorded as 0 and the pXC50 is given as less than 4.53. For the same compound, in data set [2], the cytotoxicity at 70.5 h was determined as 64.4%.
In data set [1], `Cc1cc(C(=O)NCC(O)c2c(Cl)cccc2Cl)nn1C` (centres undefined) came in with a BOTTOM of 0, an HILLSLOPE of 0, a TOP of 0 and a pXC50 of less than 4.53. In addition, in data set [2], the cytotoxicity at 70.5 h is 71.4%.
Take `CNc1cc(C)nc(NCc2cc(C)cc3c(C)c(C)[nH]c23)n1`: in data set [1], the BOTTOM was -6.522 and -8.24; the HILLSLOPE was 2.624 and 2.705; the TOP is 104.6 and 104.5; the pXC50 is 5.463 and 5.453. The cytotoxicity at 70.5 h in data set [2] was found to be 67.2%.
`COc1ccc(OCCN2CCC(N3CCNC3=O)CC2)cc1`: in data set [1], the HILLSLOPE was 1.006 and 1.131; the TOP is 99.89 and 100; the pXC50 is 4.882 and 4.993. Besides, the cytotoxicity at 70.5 h in data set [2] stood at 80.5%.
For `Cc1cnc(C(=O)N2CCCC(n3ccnc3C)C2)cn1` (centres undefined), in data set [1], the BOTTOM is recorded as 0, the HILLSLOPE is 0, the TOP was determined as 0 and the pXC50 is less than 4.53. In addition, in data set [2], the cytotoxicity at 70.5 h was 61.9%.
In data set [1], `COCCN1CCN(Cc2cccc(C(N)=O)c2)CC1C` (centres undefined) returned a BOTTOM of 0, an HILLSLOPE of 0, a TOP of 0 and a pXC50 of less than 4.53. In data set [2], the cytotoxicity at 70.5 h amounted to 71.2%.
In data set [1], `CC(O)CN1CCC(CNCc2c[nH]nc2C(C)(C)C)CC1` (centres undefined) showed a BOTTOM of 0, an HILLSLOPE of 0, a TOP of 0 and a pXC50 of less than 4.53. Further, the cytotoxicity at 70.5 h in data set [2] came out at 70.3%.
In data set [1], `Cc1cc(NC(=O)CN2CCn3c(nnc3C(C)C)C2)no1` had a BOTTOM of 0, an HILLSLOPE of 0, a TOP of 0 and a pXC50 of less than 4.53. The cytotoxicity at 70.5 h in data set [2] is 67.5%.

(Values after ChEMBL document CHEMBL3507680, “University of Dundee, Gates Library screen for HepG2 cell viability”.)
